Each molecule was assayed against T1, full-length beta-Catenin (Uniprot ID P35222) (Homo sapiens, UniProt P35222) (assay: Fluorescence polarization IC50 (beta-catenin / 5FAM-TCF4 10-53 competition)). Conditions: fluorescence polarization; read-out: beta-Catenin FP IC50.
T1 construct: 10 nM full-length beta-Catenin (Uniprot ID P35222)
T1 sequence (P35222 1-781): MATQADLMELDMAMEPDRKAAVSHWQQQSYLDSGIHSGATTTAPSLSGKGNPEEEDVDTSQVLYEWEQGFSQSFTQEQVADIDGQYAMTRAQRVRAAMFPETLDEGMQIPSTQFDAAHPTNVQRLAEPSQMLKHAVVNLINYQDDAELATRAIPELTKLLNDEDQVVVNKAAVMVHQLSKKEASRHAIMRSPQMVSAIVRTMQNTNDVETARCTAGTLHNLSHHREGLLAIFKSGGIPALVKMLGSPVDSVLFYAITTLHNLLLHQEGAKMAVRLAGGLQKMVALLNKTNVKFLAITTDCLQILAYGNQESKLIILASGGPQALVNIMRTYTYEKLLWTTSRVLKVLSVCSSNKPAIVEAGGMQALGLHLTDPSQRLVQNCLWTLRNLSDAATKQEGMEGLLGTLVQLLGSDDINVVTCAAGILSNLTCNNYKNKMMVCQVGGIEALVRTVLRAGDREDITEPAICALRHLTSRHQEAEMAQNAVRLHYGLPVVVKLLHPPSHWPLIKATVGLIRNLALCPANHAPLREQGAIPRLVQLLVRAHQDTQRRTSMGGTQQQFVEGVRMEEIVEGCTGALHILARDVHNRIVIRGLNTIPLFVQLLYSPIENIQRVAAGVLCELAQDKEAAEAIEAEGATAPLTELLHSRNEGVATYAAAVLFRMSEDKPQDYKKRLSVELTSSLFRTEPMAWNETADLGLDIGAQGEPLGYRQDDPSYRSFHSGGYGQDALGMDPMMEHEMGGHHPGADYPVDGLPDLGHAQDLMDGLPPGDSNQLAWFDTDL
Assay type: binding
In the case of `CC(=O)N1CCC[C@]12CC=CCCCC1(CCCC=CCCCOC(=O)N3CC[C@@](C(=O)N[C@@H](Cc4ccsc4)C(=O)N[C@@H](Cc4csc5ccccc45)C(=O)N[C@@H](CCC(N)=O)C(N)=O)(C3)NC(=O)[C@H](CC(N)=O)NC(=O)[C@H](Cc3ccccc3)NC(=O)[C@H](C)NC(=O)[C@H](C)NC(=O)[C@H](CCC(N)=O)NC(=O)[C@H](CCC(N)=O)NC1=O)NC(=O)[C@H](CC(C)(C)C)NC(=O)[C@H](CC(=O)O)NC2=O` (stereo partly drawn) [I-1558, Ac-PL3-Asp-Npg-B5-Gln-Gln-Ala-Ala-Phe-Asn-PyrS2-3Thi-BztA-Gln-NH2], the IC50 is reported as 678 nM. `CC(=O)N1CCC[C@]12CC=CCCCC1(CCCC=CCCCOC(=O)N3CC[C@@](C(=O)N[C@@H](Cc4ccsc4)C(=O)N[C@@H](Cc4csc5ccccc45)C(=O)N[C@@H](CCC(N)=O)C(N)=O)(C3)NC(=O)[C@H](CC(N)=O)NC(=O)[C@H](Cc3ccccc3)NC(=O)[C@H](C)NC(=O)[C@H](C)NC(=O)[C@H](CC(N)=O)NC(=O)[C@H]([C@@H](C)O)NC1=O)NC(=O)[C@H](CC(C)(C)C)NC(=O)[C@H](CC(=O)O)NC2=O` (stereo partly drawn) [I-1559, Ac-PL3-Asp-Npg-B5-Thr-Asn-Ala-Ala-Phe-Asn-PyrS2-3Thi-BztA-Gln-NH2] was tested, and the IC50 was 9680 nM. `CC(=O)N1CCC[C@]12CC=CCCCC1(CCCC=CCCCOC(=O)N3CC[C@@](C(=O)N[C@@H](Cc4ccsc4)C(=O)N[C@@H](Cc4csc5ccccc45)C(=O)N[C@@H](CCC(N)=O)C(N)=O)(C3)NC(=O)[C@H](CC(N)=O)NC(=O)[C@H](Cc3ccccc3)NC(=O)[C@H](C)NC(=O)[C@H](C)NC(=O)[C@H](CC(N)=O)NC(=O)[C@H](CCC(N)=O)NC1=O)NC(=O)[C@H](CC(C)(C)C)NC(=O)[C@H](CC(=O)O)NC2=O` (stereo partly drawn) [I-1560, Ac-PL3-Asp-Npg-B5-Gln-Asn-Ala-Ala-Phe-Asn-PyrS2-3Thi-BztA-Gln-NH2] gave an IC50 of 368 nM. Work on `CC(=O)N1CCC[C@]12CC=CCCCC1(CCCC=CCCCOC(=O)N3CC[C@@](C(=O)N[C@@H](Cc4ccsc4)C(=O)N[C@@H](Cc4csc5ccccc45)C(=O)N[C@@H](CCC(N)=O)C(N)=O)(C3)NC(=O)[C@H](CC(N)=O)NC(=O)[C@H](Cc3ccccc3)NC(=O)[C@H](C)NC(=O)[C@H](C)NC(=O)[C@H](CC(N)=O)NC(=O)[C@H](CO)NC1=O)NC(=O)[C@H](CC(C)(C)C)NC(=O)[C@H](CC(=O)O)NC2=O` (stereo partly drawn) [I-1561, Ac-PL3-Asp-Npg-B5-Ser-Asn-Ala-Ala-Phe-Asn-PyrS2-3Thi-BztA-Gln-NH2] yielded an IC50 of 2600 nM. Molecule `CC(=O)N1CCC[C@]12CC=CCCCC1(CCCC=CCCCOC(=O)N3CC[C@@](C(=O)N[C@@H](Cc4ccsc4)C(=O)N[C@@H](Cc4csc5ccccc45)C(=O)N[C@@H](CCC(N)=O)C(N)=O)(C3)NC(=O)[C@H](CC(N)=O)NC(=O)[C@H](Cc3ccccc3)NC(=O)[C@H](C)NC(=O)[C@H](C)NC(=O)[C@H](CC(N)=O)NC(=O)[C@H](CC(C)C)NC1=O)NC(=O)[C@H](CC(C)(C)C)NC(=O)[C@H](CC(=O)O)NC2=O` (stereo partly drawn) [I-1562, Ac-PL3-Asp-Npg-B5-Leu-Asn-Ala-Ala-Phe-Asn-PyrS2-3Thi-BztA-Gln-NH2] has an IC50 of 5020 nM. In the case of `CC(=O)N1CCC[C@]12CC=CCCCC1(CCCC=CCCCOC(=O)N3CC[C@@](C(=O)N[C@@H](Cc4ccsc4)C(=O)N[C@@H](Cc4csc5ccccc45)C(=O)N[C@@H](CCC(N)=O)C(N)=O)(C3)NC(=O)[C@H](CC(N)=O)NC(=O)[C@H](Cc3ccccc3)NC(=O)[C@H](C)NC(=O)[C@H](C)NC(=O)[C@H](CC(N)=O)NC(=O)[C@H](CC(C)C)NC1=O)NC(=O)[C@H](CC(C)(C)C)NC(=O)[C@H](CC(=O)O)NC2=O` (stereo partly drawn) [I-1563, Ac-PL3-Asp-Npg-B5-Leu-Asn-Ala-Ala-Phe-Asn-PyrS2-3Thi-BztA-Gln-NH2], the IC50 is reported as 2850 nM. `CC(=O)N1CCC[C@]12CC=CCCCC1(CCCC=CCCCOC(=O)N3CC[C@@](C(=O)N[C@@H](Cc4ccsc4)C(=O)N[C@@H](Cc4csc5ccccc45)C(=O)N[C@@H](CCC(N)=O)C(N)=O)(C3)NC(=O)[C@H](CC(N)=O)NC(=O)[C@H](Cc3ccccc3)NC(=O)[C@H](C)NC(=O)[C@H](C)NC(=O)[C@H](Cc3ccc(O)cc3)NC(=O)[C@H](CC(N)=O)NC1=O)NC(=O)[C@H](CC(C)(C)C)NC(=O)[C@H](CC(=O)O)NC2=O` (stereo partly drawn) [I-1568, Ac-PL3-Asp-Npg-B5-Asn-Tyr-Ala-Ala-Phe-Asn-PyrS2-3Thi-BztA-Gln-NH2] was tested, and the IC50 was 7180 nM. Molecule `CC(=O)N1CCC[C@]12CC=CCCCC1(CCCC=CCCCOC(=O)N3CC[C@@](C(=O)N[C@@H](Cc4ccsc4)C(=O)N[C@@H](Cc4csc5ccccc45)C(=O)N[C@@H](CCC(N)=O)C(N)=O)(C3)NC(=O)[C@H](CC(N)=O)NC(=O)[C@H](Cc3ccccc3)NC(=O)[C@H](C)NC(=O)[C@H](C)NC(=O)[C@H](Cc3ccc(O)cc3)NC(=O)[C@H](CC(N)=O)NC1=O)NC(=O)[C@H](CC(C)(C)C)NC(=O)[C@H](CC(=O)O)NC2=O` (stereo partly drawn) [I-1569, Ac-PL3-Asp-Npg-B5-Asn-Tyr-Ala-Ala-Phe-Asn-PyrS2-3Thi-BztA-Gln-NH2] has an IC50 of 2660 nM. For `CC(=O)N1CCC[C@]12CC=CCCCC1(CCCC=CCCCOC(=O)N3CC[C@@](C(=O)N[C@@H](Cc4ccsc4)C(=O)N[C@@H](Cc4csc5ccccc45)C(=O)N[C@@H](CCC(N)=O)C(N)=O)(C3)NC(=O)[C@H](CC(N)=O)NC(=O)[C@H](Cc3ccccc3)NC(=O)[C@H](C)NC(=O)[C@H](C)NC(=O)[C@H](CC(C)C)NC(=O)[C@H](CC(N)=O)NC1=O)NC(=O)[C@H](CC(C)(C)C)NC(=O)[C@H](CC(=O)O)NC2=O` (stereo partly drawn) [I-1570, Ac-PL3-Asp-Npg-B5-Asn-Leu-Ala-Ala-Phe-Asn-PyrS2-3Thi-BztA-Gln-NH2], the IC50 was 1340 nM. `CC(=O)N1CC2CC1C(=O)N[C@@H](CC(=O)O)C(=O)N[C@@H](CC(C)(C)C)C(=O)NC1(CCCC=CCCCOC(=O)N3CC[C@@](C(=O)N[C@@H](Cc4ccsc4)C(=O)N[C@@H](Cc4csc5ccccc45)C(=O)N[C@@H](CCC(N)=O)C(N)=O)(C3)NC(=O)[C@H](CC(N)=O)NC(=O)[C@H](Cc3ccccc3)NC(=O)[C@H](C)NC(=O)[C@H](C)NC(=O)[C@H](CC(=O)O)NC(=O)[C@H](CC(=O)O)NC1=O)CCCC=CCC(=O)O2` (stereo partly drawn) [I-1575, Ac-HypEs4-Asp-Npg-B5-Asp-Asp-Ala-Ala-Phe-Asn-PyrS2-3Thi-BztA-Gln-NH2] showed an IC50 of 79 nM. `CC(=O)N1CCC[C@]12CC=CCCCC1(CCCC=CCCCOC(=O)N3CC[C@@](C(=O)N[C@@H](Cc4ccccc4)C(=O)N[C@@H](Cc4csc5ccccc45)C(=O)N[C@@H](CCC(N)=O)C(N)=O)(C3)NC(=O)[C@H](CC(C)C)NC(=O)[C@H](Cc3ccccc3)NC(=O)[C@H](C)NC(=O)[C@H](CCCCNC(C)C)NC(=O)[C@H]([C@@H](C)O)NC(=O)[C@H](CC(=O)O)NC1=O)NC(=O)[C@H](Cc1ccccc1)NC(=O)[C@H](CC(N)=O)NC2=O` (stereo partly drawn) [I-1580, Ac-PL3-Asn-Phe-B5-Asp-Thr-iPrLys-Ala-Phe-Leu-PyrS2-Phe-BztA-Gln-NH2] was tested, and the IC50 was 1430 nM. For `CC(=O)N1CCC[C@]12CC=CCCCC1(CCCC=CCCCOC(=O)N3CC[C@@](C(=O)N[C@@H](Cc4ccccc4)C(=O)N[C@@H](Cc4csc5ccccc45)C(=O)N[C@@H](CCC(N)=O)C(N)=O)(C3)NC(=O)[C@H](CC(C)C)NC(=O)[C@H](Cc3ccccc3)NC(=O)[C@H](C)NC(=O)[C@H](CCCCNC(C)C)NC(=O)[C@H]([C@@H](C)O)NC(=O)[C@H](CC(=O)O)NC1=O)NC(=O)[C@H](CC(C)C)NC(=O)[C@H](CC(N)=O)NC2=O` (stereo partly drawn) [I-1582, Ac-PL3-Asn-Leu-B5-Asp-Thr-iPrLys-Ala-Phe-Leu-PyrS2-Phe-BztA-Gln-NH2], the IC50 was 1220 nM. In the case of `CC(=O)N1CCC[C@]12CC=CCCCC1(CCCC=CCCCOC(=O)N3CC[C@@](C(=O)N[C@@H](Cc4ccccc4)C(=O)N[C@@H](Cc4csc5ccccc45)C(=O)N[C@@H](CCC(N)=O)C(N)=O)(C3)NC(=O)[C@H](CC(C)C)NC(=O)[C@H](Cc3ccccc3)NC(=O)[C@H](C)NC(=O)[C@H](CCCCNC(C)C)NC(=O)[C@H]([C@@H](C)O)NC(=O)[C@H](CC(=O)O)NC1=O)NC(=O)[C@H](CO)NC(=O)[C@H](CC(N)=O)NC2=O` (stereo partly drawn) [I-1583, Ac-PL3-Asn-Ser-B5-Asp-Thr-iPrLys-Ala-Phe-Leu-PyrS2-Phe-BztA-Gln-NH2], the IC50 is reported as 3420 nM. `CC(=O)N1CCC[C@]12CC=CCCCC1(CCCC=CCCCOC(=O)N3CC[C@@](C(=O)N[C@@H](Cc4ccccc4)C(=O)N[C@@H](Cc4csc5ccccc45)C(=O)N[C@@H](CCC(N)=O)C(N)=O)(C3)NC(=O)[C@H](CC(C)C)NC(=O)[C@H](Cc3ccccc3)NC(=O)[C@H](C)NC(=O)[C@H](CCCCNC(C)C)NC(=O)[C@H]([C@@H](C)O)NC(=O)[C@H](CC(=O)O)NC1=O)NC(=O)[C@H](CCC(N)=O)NC(=O)[C@H](CC(N)=O)NC2=O` (stereo partly drawn) [I-1584, Ac-PL3-Asn-Gln-B5-Asp-Thr-iPrLys-Ala-Phe-Leu-PyrS2-Phe-BztA-Gln-NH2] gave an IC50 of 2440 nM. `CC(=O)N1CCC[C@]12CC=CCCCC1(CCCC=CCCCOC(=O)N3CC[C@@](C(=O)N[C@@H](Cc4ccccc4)C(=O)N[C@@H](Cc4csc5ccccc45)C(=O)N[C@@H](CCC(N)=O)C(N)=O)(C3)NC(=O)[C@H](CC(C)C)NC(=O)[C@H](Cc3ccccc3)NC(=O)[C@H](C)NC(=O)[C@H](CCCCNC(C)C)NC(=O)[C@H]([C@@H](C)O)NC(=O)[C@H](CC(=O)O)NC1=O)NC(=O)[C@H](CCCCNC(C)C)NC(=O)[C@H](CC(N)=O)NC2=O` (stereo partly drawn) [I-1591, Ac-PL3-Asn-iPrLys-B5-Asp-Thr-iPrLys-Ala-Phe-Leu-PyrS2-Phe-BztA-Gln-NH2] showed an IC50 of 3110 nM.

Reference: patent US20240116985A1, “STAPLED PEPTIDES AND METHODS THEREOF” (priority 2020, published 2024)
